# Measured values as given in patent US20250263799A1, “METHODS OF TREATING CANCER USING REPLICATION STRESS MODULATORS” (The Institute of Cancer Research: Royal Cancer Hospital, priority 2022, published 2025).
# What was measured:
# [1] = test system: RPE1 cells engineered with dox inducible expression of HORMAD1; test: Colony formation (surviving fraction) with ART558 in RPE1 cells with dox inducible expression of HORMAD1; assay type: cell-based, human
# Procedure: (§1) RPE1 (FIGS. 16-17, A) or SUM159 (FIGS. 16-17, B) cells engineered with dox inducible expression of HORMAD1 were seeded at colony forming density in the presence or absence of dox and treated with the indicated doses of ART558. Colonies were counted and surviving fractions for each condition were calculated.
# [2] = test system: SUM159 cells engineered with dox inducible expression of HORMAD1; test: Colony formation (surviving fraction) with ART558 in SUM159 cells with dox inducible expression of HORMAD1; assay type: cell-based, human
# Procedure: as §1
# [3] = test system: SUM159 cells with dox-inducible expression of HORMAD1; test: LY2606368 sensitivity in SUM159 cells with dox-inducible HORMAD1 (FIG. 18D); assay type: cell-based, human; settings: +DOX vs -DOX
# [4] = test system: Breast cancer cell lines characterized as HORMAD1 negative and positive; settings: data from depmap.org, FIG. 18C; cited from earlier work
# [5] = test system: HORMAD1 negative RPE-1 cells engineered to have doxycycline inducible expression of HORMAD1; test: Novobiocin sensitivity, 10 days, cell viability by cell titre glow; assay type: cell-based, human
# Procedure: HORMAD1 negative RPE-1 cells engineered to have doxycycline inducible expression of HORMAD1 were then assessed for their sensitivity to the POLQ inhibitor Novobiocin. Cells were treated with the indicated doses of Novobiocin for 10 days and cell viability assessed by cell titre glow.
# [6] = test system: SUM149 cells with dox-inducible expression of HORMAD1; test: CHK1 inhibitor sensitivity, colony forming density, Cell Titer Glow, surviving fraction; assay type: cell-based, human; settings: FIGS. 18A, B and D
smiles,measurement,setting,value
Cc1cccc(N(C)C(=O)[C@@H]2[C@H](O)CCN2c2nc(C)cc(C(F)(F)F)c2C#N)c1 [ART558],"sensitivity to inhibitor, +DOX vs -DOX","[1]; RPE1, dox-induced expression of HORMAD1, FIG. 16A",increases sensitivity
same,cell viability (surviving fraction of colonies),"[1]; RPE1 cells expressing HORMAD1 (+DOX), 5, 10, and 20 μM ART558",significant reduction in cell viability
same,cell viability (surviving fraction of colonies),"[1]; RPE1 cells in the absence of the inducer (-DOX), below 20 μM ART558",no reduction in cell viability
same,"sensitivity to inhibitor, HORMAD1 expressing vs uninduced controls","[2]; SUM159, +DOX vs uninduced",significantly increased sensitivity
same,cell viability (surviving fraction of colonies),"[2]; SUM159 cells expressing HORMAD1 (+DOX), 10 and 20 μM ART558",significant reduction in cell viability
COc1cccc(OCCCN)c1-c1cc(Nc2cnc(C#N)cn2)n[nH]1 [LY2606368],sensitivity to CHK1 inhibitor upon induction of HORMAD1 expression,[3],increased sensitivity
same,"mean area under the curve (AUC), HORMAD1 positive vs HORMAD1 negative group",[4],lower mean AUC
CO[C@@H]1[C@@H](OC(N)=O)[C@@H](O)[C@H](Oc2ccc3c(O)c(NC(=O)c4ccc(O)c(CC=C(C)C)c4)c(=O)oc3c2C)OC1(C)C [Novobiocin],"sensitivity to inhibitor, HORMAD1 expressing vs uninduced controls","[5]; +DOX vs uninduced, difference dose-dependent",significantly increased sensitivity
same,colony survival,"[5]; Novobiocin at concentrations above 50 μM, 10 days",significant and dose-dependent reduction in colony survival
Cn1cc(-c2[nH]c3cc(NC(=O)[C@H](N)C4CCCCC4)cc4c3c2C=NNC4=O)cn1 [PF47736],"sensitivity to CHK1 inhibitor, HORMAD1 expressing vs uninduced controls",[6],significantly increased sensitivity
C[C@H](CN(C)C)Oc1nc(Nc2cc3cccc(Cl)c3cn2)cnc1C#N [SAR020106],"sensitivity to CHK1 inhibitor, HORMAD1 expressing vs uninduced controls",[6],significantly increased sensitivity
